Experiments:
[1] = test system: calreticulin; assay: Calreticulin expression on infected L929 cell membrane; type: cell-based; settings: L929 infected with MHV-A59 (FIG. 3)
Method: To determine if the P2Et extract of the invention can inhibit virus infection L929 cells were seeded in 12-well plates at a concentration of […] for well and cultured overnight. Cells were pretreated for 2 h with the P2Et or controls, washed twice with PBS 1× and inoculated with 200 μl of the virus suspension to 0.1, 0.01 or 0.001 MOI in DMEM, 1 h at room temperature in mechanical agitation. The virus inoculum was removed, the cells were treated again with extracts for 6, 12 and 24 h. Supernatants were collected for qPCR and plaque assays. The cells were collected for evaluation of proteins by western blot and ROS assays by flow cytometry.
Previously, we have shown that standardized P2Et extract induces immunogenic cell death (ICD), here the expression of calreticulin, a marker of ICD, was evaluated on the L929 cell membrane infected cells.

[2] = test system: SARS-CoV-2 virus; settings: cited from earlier work

| Compound | expression of calreticulin induced by viral infection on L929 cell surface [1] | suppression of viral activity [2] |
| --- | --- | --- |
| CC(=O)N[C@@H](CS)C(=O)O [NAC, N-Acetylcysteine] | decreased | – |
| CCN(CC)CCCC(C)Nc1ccnc2cc(Cl)ccc12 (stereo not shown) [chloroquine] | decreased | – |
| O=c1c(O)c(-c2ccc(O)c(O)c2)oc2cc(O)cc(O)c12 [quercetin] | decreased | – |
| epigallocatechin-zinc gallate [EGCG-Zn^+2] | – | greater than 99% |

Source: patent US20230190848A1 (priority 2021, published 2023)
